The values below come from US20140005163A1 (NOVARTIS AG, priority 2010, published 2014).

pIC50: −log10 of the molar value.

Assay [1] deals with PKB Ser473 phosphorylation in Rat1-myr-HA-p110 delta cells. Put plainly: Reverse protein array assay, PKB Ser473 phosphorylation in Rat1-myr-p110 delta cells. The assay is classed as cell-based. Particulars: read-out: p-PKB IC50. The method, boiled down:
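Measured: PKB Ser473 phosphorylation by reverse protein array in Rat1 cells expressing myr-HA-p110 alpha, beta or delta, after 30 min compound treatment at 37 °C with 0.2% DMSO vehicle.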

The target in the next assay is T1, PI3K alpha (Homo sapiens, UniProt P42336).
T1 construct: p85(iSH2) fusion partner (see partner chain) (N); His tag (C); made in house; host or cells: baculovirus; Tn5 (Trichoplusia ni) or TiniPro insect cells
Put plainly: PI3K alpha kinase assay (Kinase-Glo luminescence). The assay is classed as biochemical. An outline of the steps: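 IC50 is taken from a four-parameter logistic fit of 8-point dilutions, with Kinase-Glo luminescence reporting residual ATP. Reactions ran 60 min at room temperature in TRIS pH 7.5 buffer with MgCl2, NaCl, CHAPS and DTT. Final levels were 10 nM enzyme, 1 μM ATP and 10 μg/mL PI.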
On the technique in general: Kinase-Glo measures the ATP left after a reaction by luminescence.

T1 sequence (P42336 with tags, fused parts or gaps limits assumed): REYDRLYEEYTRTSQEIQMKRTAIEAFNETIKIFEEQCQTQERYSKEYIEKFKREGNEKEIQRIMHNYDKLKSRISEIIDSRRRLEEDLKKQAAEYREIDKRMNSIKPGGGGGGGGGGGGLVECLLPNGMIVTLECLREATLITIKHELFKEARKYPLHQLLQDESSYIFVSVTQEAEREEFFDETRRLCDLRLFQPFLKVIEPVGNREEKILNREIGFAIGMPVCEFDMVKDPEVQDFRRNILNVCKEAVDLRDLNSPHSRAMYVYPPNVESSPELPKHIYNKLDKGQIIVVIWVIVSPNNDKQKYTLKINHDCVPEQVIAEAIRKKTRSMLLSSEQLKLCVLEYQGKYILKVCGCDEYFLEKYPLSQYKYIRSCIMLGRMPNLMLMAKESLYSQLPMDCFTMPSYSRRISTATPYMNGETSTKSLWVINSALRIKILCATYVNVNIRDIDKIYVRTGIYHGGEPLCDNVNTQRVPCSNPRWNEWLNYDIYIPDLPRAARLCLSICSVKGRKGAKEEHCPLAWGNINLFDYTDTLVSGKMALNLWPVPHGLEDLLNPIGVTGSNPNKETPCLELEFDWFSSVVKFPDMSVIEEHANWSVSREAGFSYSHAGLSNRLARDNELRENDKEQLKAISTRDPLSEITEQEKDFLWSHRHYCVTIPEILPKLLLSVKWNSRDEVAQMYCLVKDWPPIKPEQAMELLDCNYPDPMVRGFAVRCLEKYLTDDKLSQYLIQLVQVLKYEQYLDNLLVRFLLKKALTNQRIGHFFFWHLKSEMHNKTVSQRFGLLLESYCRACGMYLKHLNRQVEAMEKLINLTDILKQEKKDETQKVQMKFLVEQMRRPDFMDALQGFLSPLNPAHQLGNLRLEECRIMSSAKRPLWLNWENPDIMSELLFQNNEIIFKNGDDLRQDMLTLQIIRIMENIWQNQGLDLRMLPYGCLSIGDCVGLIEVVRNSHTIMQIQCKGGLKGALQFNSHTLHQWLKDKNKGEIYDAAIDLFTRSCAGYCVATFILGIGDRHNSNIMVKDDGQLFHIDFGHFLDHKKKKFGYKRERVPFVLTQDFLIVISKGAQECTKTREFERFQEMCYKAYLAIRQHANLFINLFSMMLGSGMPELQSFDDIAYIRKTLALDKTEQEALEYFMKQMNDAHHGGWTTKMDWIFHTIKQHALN

In the case of `COc1ncc(-c2ccc3ncc4c(c3c2)n(-c2cc(C)nn2C)c(=O)n4C)c(OC)n1` [Example 234.4, 8-(2,4-Dimethoxy-pyrimidin-5-yl)-1-(2,5-dimethyl-2H-pyrazol-3-yl)-3-methyl-1,3-dihydro-imidazo[4,5-c]quinolin-2-one], the values for the pIC50 (in assay [1]; on PI3K alpha) were 6.92 and 7.19, respectively.
On to `Cc1nn(C(C)C)cc1-n1c(=O)n(C)c2cnc3ccc(-c4cnc5c(c4)COC(=O)N5C)cc3c21` [Example 170, 1-(1-Isopropyl-3-methyl-1H-pyrazol-4-yl)-3-methyl-8-(1-methyl-2-oxo-1,4-dihydro-2H-pyrido[2,3-d][1,3]oxazin-6-yl)-1,3-dihydro-imidazo[4,5-c]quinolin-2-one], for which the pIC50 (usually the negative decadic logarithm of the IC50, by convention in mol/L) was 6.22 in assay [1] and 7.26 on PI3K alpha.
For `CCN(CC)c1cncc(-c2ccc3ncc4c(c3c2)n(-c2cn(C)nc2C)c(=O)n4C)c1` [Example 95, 8-(5-Diethylamino-pyridin-3-yl)-1-(1,3-dimethyl-1H-pyrazol-4-yl)-3-methyl-1,3-dihydro-imidazo[4,5-c]quinolin-2-one], in that order: 7.60 and 7.44.
In the case of `CCn1cc(-n2c(=O)n(C)c3cnc4ccc(-c5cnc(N)c(Cl)c5)cc4c32)c(C)n1` [Example 148.3, 8-(6-Amino-5-chloro-pyridin-3-yl)-1-(1-ethyl-3-methyl-1H-pyrazol-4-yl)-3-methyl-1,3-dihydro-imidazo[4,5-c]quinolin-2-one], the pIC50 was 7.85 in assay [1] and 8.15 at PI3K alpha.
For `Cc1nn(C)cc1-n1c(=O)n(C)c2cnc3ccc(-c4ccc(N5CCCC5)nc4)cc3c21` [Example 97, 1-(1,3-Dimethyl-1H-pyrazol-4-yl)-3-methyl-8-(6-pyrrolidin-1-yl-pyridin-3-yl)-1,3-dihydro-imidazo[4,5-c]quinolin-2-one], in that order: 7.52 and 7.07.
As for `[2H]C([2H])([2H])OCc1ncc(-c2ccc3ncc4c(c3c2)n(-c2cn(C)nc2C)c(=O)n4C)cc1OCC` [Example 198, 1-(1,3-Dimethyl-1H-pyrazol-4-yl)-8-(5-ethoxy-6-trideuteromethoxymethyl-pyridin-3-yl)-3-methyl-1,3-dihydro-imidazo[4,5-c]quinolin-2-one], the pIC50 in assay [1] is 7.05; at PI3K alpha, 7.77.
For `Cc1cc(-n2c(=O)n(C)c3cnc4ccc(-c5cnc(N)c(C(F)(F)F)c5)cc4c32)n(C)n1` [Example 25.6, 8-(6-Amino-5-trifluoromethyl-pyridin-3-yl)-1-(2,5-dimethyl-2H-pyrazol-3-yl)-3-methyl-1,3-dihydro-imidazo[4,5-c]quinolin-2-one], in that order: 7.49 and 7.39.
Taken in the same sequence, the figures for `CC(C)Oc1cncc(-c2ccc3ncc4c(c3c2)n(-c2cn(C)nc2Cl)c(=O)n4C)c1` [Example 58.2, 1-(3-Chloro-1-methyl-1H-pyrazol-4-yl)-8-(5-isopropoxy-pyridin-3-yl)-3-methyl-1,3-dihydro-imidazo[4,5-c]quinolin-2-one] were 7.92 and 8.22.
Take `CNc1ncc(-c2ccc3ncc4c(c3c2)n(-c2cn(C)nc2Cl)c(=O)n4C)cc1C` [Example 119, 1-(3-Chloro-1-methyl-1H-pyrazol-4-yl)-3-methyl-8-(5-methyl-6-methylamino-pyridin-3-yl)-1,3-dihydro-imidazo[4,5-c]quinolin-2-one]: the values for the pIC50 (in assay [1]; at PI3K alpha) were 8.15 and 7.80, respectively.
For `CCOCc1cc(-c2ccc3ncc4c(c3c2)n(-c2cn(C(C)C)nc2C)c(=O)n4C)cnc1N` [Example 166.3, 8-(6-Amino-5-ethoxymethyl-pyridin-3-yl)-1-(1-isopropyl-3-methyl-1H-pyrazol-4-yl)-3-methyl-1,3-dihydro-imidazo[4,5-c]quinolin-2-one], in that order: 6.95 and 8.00.
Taken in the same sequence, the figures for `CCNC(=O)c1cc(-c2ccc3ncc4c(c3c2)n(-c2cn(C(C)C)nc2C)c(=O)n4C)cnc1N` [Example 227, 2-Amino-N-ethyl-5-[1-(1-isopropyl-3-methyl-1H-pyrazol-4-yl)-3-methyl-2-oxo-2,3-dihydro-1H-imidazo[4,5-c]quinolin-8-yl]-nicotinamide] were 6.62 and 7.15.
Taken in the same sequence, the figures for `CCNc1ncc(-c2ccc3ncc4c(c3c2)n(-c2cn(C)nc2C)c(=O)n4C)cc1C(F)(F)F` [Example 145.2, 1-(1,3-Dimethyl-1H-pyrazol-4-yl)-8-(6-ethylamino-5-trifluoromethyl-pyridin-3-yl)-3-methyl-1,3-dihydro-imidazo[4,5-c]quinolin-2-one] were 7.38 and 7.57.
In the case of `CCn1cc(-n2c(=O)n(C)c3cnc4ccc(-c5cncc(C(C)(C)C#N)c5)cc4c32)c(C)n1` [Example 220.2, 2-{5-[1-(1-Ethyl-3-methyl-1H-pyrazol-4-yl)-3-methyl-2-oxo-2,3-dihydro-1H-imidazo[4,5-c]quinolin-8-yl]-pyridin-3-yl}-2-methyl-propionitrile], the results for the pIC50 (in assay [1]; at PI3K alpha) were 7.35 and 8.00, respectively.
For `Cc1nn(C(C)C)cc1-n1c(=O)n(C)c2cnc3ccc(-c4cnc(Cl)c(N)c4)cc3c21` [Example 152.1, 8-(5-Amino-6-chloro-pyridin-3-yl)-1-(1-isopropyl-3-methyl-1H-pyrazol-4-yl)-3-methyl-1,3-dihydro-imidazo[4,5-c]quinolin-2-one], in that order: 7.80 and 7.57.
Taken in the same sequence, the figures for `Cc1nn(C)cc1-n1c(=O)n(C)c2cnc3ccc(-c4cnc(N)c(C(F)(F)F)c4)cc3c21` [Example 25.1, 8-(6-Amino-5-trifluoromethyl-pyridin-3-yl)-1-(1,3-dimethyl-1H-pyrazol-4-yl)-3-methyl-1,3-dihydro-imidazo[4,5-c]quinolin-2-one] were 8.05 and 7.85.
Regarding `CNc1ncc(-c2ccc3ncc4c(c3c2)n(-c2cn(C(C)C)nc2C)c(=O)n4C)cc1C(F)(F)F` [Example 144.2, 1-(1-Isopropyl-3-methyl-1H-pyrazol-4-yl)-3-methyl-8-(6-methylamino-5-trifluoromethyl-pyridin-3-yl)-1,3-dihydro-imidazo[4,5-c]quinolin-2-one], the figures for the pIC50 (in assay [1]; at PI3K alpha) were 7.92 and 8.10, respectively.
For the compound `Cc1nn(C)cc1-n1c(=O)n(C)c2cnc3ccc(-c4cncc(OC5CCC5)c4)cc3c21` [Example 60.1, 8-(5-Cyclobutoxy-pyridin-3-yl)-1-(1,3-dimethyl-1H-pyrazol-4-yl)-3-methyl-1,3-dihydro-imidazo[4,5-c]quinolin-2-one], the negative-log IC50 (pIC50) in assay [1] is 7.48; on PI3K alpha, greater than 8.52.
With `Cc1nn(C)c(C)c1-n1c(=O)n(C)c2cnc3ccc(-c4cnc(Cl)c(N)c4)cc3c21` [Example 152.3, 8-(5-Amino-6-chloro-pyridin-3-yl)-3-methyl-1-(1,3,5-trimethyl-1H-pyrazol-4-yl)-1,3-dihydro-imidazo[4,5-c]quinolin-2-one], the results for the pIC50 (in assay [1]; at PI3K alpha) were 7.11 and 7.36, respectively.
For `Cc1nn(C)cc1-n1c(=O)n(C)c2cnc3ccc(-c4cncc(N(C)C5CCC5)c4)cc3c21` [Example 174, 8-[5-(Cyclobutyl-methyl-amino)-pyridin-3-yl]-1-(1,3-dimethyl-1H-pyrazol-4-yl)-3-methyl-1,3-dihydro-imidazo[4,5-c]quinolin-2-one], in that order: 7.92 and 7.77.
Taken in the same sequence, the figures for `CCOCc1cc(-c2ccc3ncc4c(c3c2)n(-c2cn(C)nc2Cl)c(=O)n4C)cnc1N` [Example 166.4, 8-(6-Amino-5-ethoxymethyl-pyridin-3-yl)-1-(3-chloro-1-methyl-1H-pyrazol-4-yl)-3-methyl-1,3-dihydro-imidazo[4,5-c]quinolin-2-one] were 7.96 and 8.05.
For `Cc1cc(-n2c(=O)n(C)c3cnc4ccc(-c5cnc(C)c(O)c5)cc4c32)n(C)n1` [Example 185.2, 1-(2,5-Dimethyl-2H-pyrazol-3-yl)-8-(5-hydroxy-6-methyl-pyridin-3-yl)-3-methyl-1,3-dihydro-imidazo[4,5-c]quinolin-2-one], in that order: 6.80 and 7.96.
For the compound `CNc1ccc(-c2ccc3ncc4c(c3c2)n(-c2cn(C(C)C)nc2C)c(=S)n4C)cn1` [Example 241, 1-(1-isopropyl-3-methyl-1H-pyrazol-4-yl)-3-methyl-8-(6-(methylamino)pyridin-3-yl)-1H-imidazo[4,5-c]quinoline-2(3H)-thione], the pIC50 is 8.05 in assay [1] and 7.74 at PI3K alpha.
For `Cc1cc(-n2c(=O)n(C)c3cnc4ccc(-c5cnc(F)c(N)c5)cc4c32)n(C)n1` [Example 149.3, 8-(5-Amino-6-fluoro-pyridin-3-yl)-1-(2,5-dimethyl-2H-pyrazol-3-yl)-3-methyl-1,3-dihydro-imidazo[4,5-c]quinolin-2-one], in that order: 6.77 and 7.20.
Taken in the same sequence, the figures for `Cc1nn(C)cc1-n1c(=O)n(C)c2cnc3ccc(-c4cccc(OC(C)C)c4)cc3c21` [Example 82, 1-(1,3-Dimethyl-1H-pyrazol-4-yl)-8-(3-isopropoxy-phenyl)-3-methyl-1,3-dihydro-imidazo[4,5-c]quinolin-2-one] were 6.50 and 7.41.
For `CN(C)c1ncc(-c2ccc3ncc4c(c3c2)n(-c2cn(C)nc2Cl)c(=O)n4C)cn1` [Example 6.3, 1-(3-Chloro-1-methyl-1H-pyrazol-4-yl)-8-(2-dimethylamino-pyrimidin-5-yl)-3-methyl-1,3-dihydro-imidazo[4,5-c]quinolin-2-one], in that order: 7.62 and 8.10.
